Source: the NIST ThermoML archive (doi:10.1016/j.jct.2017.07.016)
± gives the expanded uncertainty stated by the source.

Assay: xn = mol fraction of the nth substance listed
Conditions: 96.7 kPa, Liquid; for viscosity: Capillary tube (Ostwald / Ubbelohde) method; for mass density: Vibrating tube method

CCCCCCn1cc[n+](C)c1.[Cl-] [1-hexyl-3-methylimidazolium chloride] + CN(C)C=O
Conditions | mass density [kg/m3] | viscosity [mPa·s]
303.15 K, x1 = 0.134 | 974.15 ± 2.1 | 2.479 ± 0.39
303.15 K, x1 = 0.265 | 995.06 ± 2.1 | 8.757 ± 1.4
303.15 K, x1 = 0.352 | 1004.26 ± 2.1 | 20.21 ± 3.1
303.15 K, x1 = 0.457 | 1013.06 ± 2.1 | 47.11 ± 7.5
303.15 K, x1 = 0.591 | 1021.21 ± 2.1 | 158.5 ± 25
303.15 K, x1 = 0.764 | 1029.04 ± 2.2 | 666.71 ± 110
303.15 K, x1 = 0.871 | 1032.74 ± 2.2 | 2341.7 ± 390
303.15 K, x1 = 1 | 1036.07 ± 2.2 | 5718.5 ± 960
308.15 K, x1 = 0.134 | 970.01 ± 2.1 | 2.265 ± 0.35
308.15 K, x1 = 0.265 | 991.32 ± 2.1 | 7.582 ± 1.2
308.15 K, x1 = 0.352 | 1000.71 ± 2.1 | 16.69 ± 2.6
308.15 K, x1 = 0.457 | 1009.56 ± 2.1 | 38 ± 6
308.15 K, x1 = 0.591 | 1018.02 ± 2.1 | 120.91 ± 19
308.15 K, x1 = 0.764 | 1026.03 ± 2.2 | 466.32 ± 74
308.15 K, x1 = 0.871 | 1029.81 ± 2.2 | 1478.3 ± 240
308.15 K, x1 = 1 | 1033.22 ± 2.2 | 3430.8 ± 560
313.15 K, x1 = 0.134 | 965.87 ± 2.1 | 2.075 ± 0.32
313.15 K, x1 = 0.265 | 987.59 ± 2.1 | 6.651 ± 1
313.15 K, x1 = 0.352 | 997.11 ± 2.1 | 14.24 ± 2.2
313.15 K, x1 = 0.457 | 1006.09 ± 2.1 | 30.89 ± 4.8
313.15 K, x1 = 0.591 | 1014.86 ± 2.1 | 92.58 ± 15
313.15 K, x1 = 0.764 | 1023.06 ± 2.1 | 333.82 ± 52
313.15 K, x1 = 0.871 | 1026.9 ± 2.2 | 1002.9 ± 160
313.15 K, x1 = 1 | 1030.38 ± 2.2 | 2146.1 ± 350
318.15 K, x1 = 0.134 | 961.73 ± 2.1 | 1.962 ± 0.3
318.15 K, x1 = 0.265 | 983.87 ± 2.1 | 5.854 ± 0.9
318.15 K, x1 = 0.352 | 993.45 ± 2.1 | 12.13 ± 1.9
318.15 K, x1 = 0.457 | 1002.63 ± 2.1 | 25.38 ± 4
318.15 K, x1 = 0.591 | 1011.71 ± 2.1 | 72.08 ± 11
318.15 K, x1 = 0.764 | 1020.1 ± 2.1 | 241.58 ± 38
318.15 K, x1 = 0.871 | 1023.98 ± 2.2 | 685.17 ± 110
318.15 K, x1 = 1 | 1027.56 ± 2.2 | 1390.4 ± 220
323.15 K, x1 = 0.134 | 957.59 ± 2.1 | 1.797 ± 0.28
323.15 K, x1 = 0.265 | 980.14 ± 2.1 | 5.212 ± 0.8
323.15 K, x1 = 0.352 | 989.87 ± 2 | 10.45 ± 1.6
323.15 K, x1 = 0.457 | 999.19 ± 2.1 | 21.15 ± 3.3
323.15 K, x1 = 0.591 | 1008.57 ± 2.1 | 57.17 ± 8.8
323.15 K, x1 = 0.764 | 1017.14 ± 2.1 | 178.79 ± 28
323.15 K, x1 = 0.871 | 1021.09 ± 2.2 | 479.12 ± 75
323.15 K, x1 = 1 | 1024.75 ± 2.2 | 928.1 ± 150
328.15 K, x1 = 0.134 | 953.45 ± 2.1 | 1.656 ± 0.26
328.15 K, x1 = 0.265 | 976.43 ± 2.1 | 4.647 ± 0.71
328.15 K, x1 = 0.352 | 986.25 ± 2 | 9.067 ± 1.4
328.15 K, x1 = 0.457 | 995.78 ± 2.1 | 17.82 ± 2.8
328.15 K, x1 = 0.591 | 1005.44 ± 2.1 | 45.82 ± 7.1
328.15 K, x1 = 0.764 | 1014.17 ± 2.1 | 135.89 ± 21
328.15 K, x1 = 0.871 | 1018.25 ± 2.2 | 344.77 ± 54
328.15 K, x1 = 1 | 1021.92 ± 2.2 | 638.79 ± 99
333.15 K, x1 = 0.134 | 949.31 ± 2.1 | 1.544 ± 0.24
333.15 K, x1 = 0.265 | 972.72 ± 2.1 | 4.175 ± 0.64
333.15 K, x1 = 0.352 | 982.75 ± 2 | 7.933 ± 1.2
333.15 K, x1 = 0.457 | 992.43 ± 2 | 15.17 ± 2.3
333.15 K, x1 = 0.591 | 1002.31 ± 2.1 | 37.41 ± 5.7
333.15 K, x1 = 0.764 | 1011.21 ± 2.1 | 104.75 ± 16
333.15 K, x1 = 0.871 | 1015.42 ± 2.1 | 253.05 ± 39
333.15 K, x1 = 1 | 1019.13 ± 2.2 | 453.59 ± 70
338.15 K, x1 = 0.134 | 945.16 ± 2.1 | 1.426 ± 0.22
338.15 K, x1 = 0.265 | 969.01 ± 2.1 | 3.776 ± 0.58
338.15 K, x1 = 0.352 | 979.34 ± 2 | 7.016 ± 1.1
338.15 K, x1 = 0.457 | 989.15 ± 2 | 13.04 ± 2
338.15 K, x1 = 0.591 | 999.19 ± 2.1 | 30.94 ± 4.7
338.15 K, x1 = 0.764 | 1008.27 ± 2.1 | 82.3 ± 13
338.15 K, x1 = 0.871 | 1012.58 ± 2.1 | 190.24 ± 29
338.15 K, x1 = 1 | 1016.38 ± 2.2 | 327.52 ± 50
343.15 K, x1 = 0.134 | 941 ± 2.1 | 1.328 ± 0.2
343.15 K, x1 = 0.265 | 965.31 ± 2.1 | 3.431 ± 0.52
343.15 K, x1 = 0.352 | 975.92 ± 2 | 6.246 ± 0.95
343.15 K, x1 = 0.457 | 985.94 ± 2 | 11.3 ± 1.7
343.15 K, x1 = 0.591 | 996.09 ± 2.1 | 25.86 ± 4
343.15 K, x1 = 0.764 | 1005.34 ± 2.1 | 65.58 ± 10
343.15 K, x1 = 0.871 | 1009.75 ± 2.1 | 143.98 ± 22
343.15 K, x1 = 1 | 1013.65 ± 2.2 | 243.04 ± 37
348.15 K, x1 = 0.134 | 936.86 ± 2.1 | 1.244 ± 0.19
348.15 K, x1 = 0.265 | 961.62 ± 2.1 | 3.135 ± 0.48
348.15 K, x1 = 0.352 | 972.5 ± 2 | 5.564 ± 0.85
348.15 K, x1 = 0.457 | 982.8 ± 2 | 9.895 ± 1.5
348.15 K, x1 = 0.591 | 992.99 ± 2.1 | 21.85 ± 3.3
348.15 K, x1 = 0.764 | 1002.41 ± 2.1 | 52.81 ± 8
348.15 K, x1 = 0.871 | 1006.93 ± 2.1 | 112.06 ± 17
348.15 K, x1 = 1 | 1010.91 ± 2.2 | 183.45 ± 28
353.15 K, x1 = 0.134 | 932.7 ± 2.1 | 1.171 ± 0.18
353.15 K, x1 = 0.265 | 957.92 ± 2.1 | 2.875 ± 0.44
353.15 K, x1 = 0.352 | 969.09 ± 2 | 5.007 ± 0.76
353.15 K, x1 = 0.457 | 979.67 ± 2 | 8.708 ± 1.3
353.15 K, x1 = 0.591 | 989.9 ± 2 | 18.59 ± 2.8
353.15 K, x1 = 0.764 | 999.51 ± 2.1 | 43.42 ± 6.6
353.15 K, x1 = 0.871 | 1004.11 ± 2.1 | 88.51 ± 13
353.15 K, x1 = 1 | 1008.18 ± 2.2 | 140.06 ± 21
